Results taken from paper PMC11167047 (Cell Death Discovery, 2024).

How the values were obtained:
Test in all cases: kinome screen (33PanQinase)
Format in all cases: biochemical
MKK6 SDTD = target: T1, MKK6 SDTD (Homo sapiens, UniProt P52564, S207D/T211D)
T1 construct: purchased Reaction Biology Europe GmbH (formerly ProQinase)
T1 sequence (P52564 1-334 S207D/T211D): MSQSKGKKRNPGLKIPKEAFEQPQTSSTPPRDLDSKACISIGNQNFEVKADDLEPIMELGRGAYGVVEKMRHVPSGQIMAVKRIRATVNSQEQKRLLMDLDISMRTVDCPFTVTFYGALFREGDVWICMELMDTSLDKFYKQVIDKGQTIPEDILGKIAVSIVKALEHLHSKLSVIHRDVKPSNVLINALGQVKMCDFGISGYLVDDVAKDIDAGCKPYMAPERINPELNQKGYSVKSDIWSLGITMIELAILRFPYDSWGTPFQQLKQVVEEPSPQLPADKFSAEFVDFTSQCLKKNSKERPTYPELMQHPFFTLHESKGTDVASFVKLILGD
Protocol: (§1) The Kinome Screening was performed by Reaction Biology Europe GmbH (http://reactionbiology.com; Freiburg i. Br., Germany).

JAK2 = target: T2, JAK2 (Homo sapiens, UniProt O60674)
T2 construct: purchased Reaction Biology Europe GmbH (formerly ProQinase)
Protocol: as §1

BRK = target: T3, BRK (Homo sapiens, UniProt Q13882)
T3 construct: purchased Reaction Biology Europe GmbH (formerly ProQinase)
Protocol: as §1

MAP4K5 = target: T4, MAP4K5 (Homo sapiens, UniProt Q9Y4K4)
T4 construct: purchased Reaction Biology Europe GmbH (formerly ProQinase)
Protocol: as §1

CDK1/CycB1 = target: T5, CDK1/CycB1 (Homo sapiens, UniProt P06493)
T5 construct: purchased Reaction Biology Europe GmbH (formerly ProQinase)
Protocol: as §1

PKCζ = target: T6, PKCζ (Homo sapiens, UniProt Q05513)
T6 construct: purchased Reaction Biology Europe GmbH (formerly ProQinase)
T6 sequence (Q05513 1-592): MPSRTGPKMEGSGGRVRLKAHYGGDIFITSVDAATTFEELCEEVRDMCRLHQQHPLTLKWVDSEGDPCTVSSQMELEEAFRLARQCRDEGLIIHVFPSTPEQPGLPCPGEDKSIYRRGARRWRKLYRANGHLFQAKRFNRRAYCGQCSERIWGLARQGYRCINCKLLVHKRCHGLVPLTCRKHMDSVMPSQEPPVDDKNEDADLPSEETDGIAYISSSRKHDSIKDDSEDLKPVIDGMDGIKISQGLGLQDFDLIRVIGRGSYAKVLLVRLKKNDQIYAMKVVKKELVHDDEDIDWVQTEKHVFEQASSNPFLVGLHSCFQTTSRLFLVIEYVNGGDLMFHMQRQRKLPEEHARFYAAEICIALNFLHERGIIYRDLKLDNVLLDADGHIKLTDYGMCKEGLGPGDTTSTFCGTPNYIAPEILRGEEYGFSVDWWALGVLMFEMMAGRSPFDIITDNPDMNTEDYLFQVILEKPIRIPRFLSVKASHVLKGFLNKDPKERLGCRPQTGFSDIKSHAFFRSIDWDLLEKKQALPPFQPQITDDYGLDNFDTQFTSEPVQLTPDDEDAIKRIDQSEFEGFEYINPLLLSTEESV
Protocol: as §1

PIM2 = target: T7, PIM2 (Homo sapiens, UniProt Q9P1W9)
T7 construct: purchased Reaction Biology Europe GmbH (formerly ProQinase)
Protocol: as §1

BRSK1 = target: T8, BRSK1 (Homo sapiens, UniProt Q8TDC3)
T8 construct: purchased Reaction Biology Europe GmbH (formerly ProQinase)
T8 sequence (Q8TDC3 1-778): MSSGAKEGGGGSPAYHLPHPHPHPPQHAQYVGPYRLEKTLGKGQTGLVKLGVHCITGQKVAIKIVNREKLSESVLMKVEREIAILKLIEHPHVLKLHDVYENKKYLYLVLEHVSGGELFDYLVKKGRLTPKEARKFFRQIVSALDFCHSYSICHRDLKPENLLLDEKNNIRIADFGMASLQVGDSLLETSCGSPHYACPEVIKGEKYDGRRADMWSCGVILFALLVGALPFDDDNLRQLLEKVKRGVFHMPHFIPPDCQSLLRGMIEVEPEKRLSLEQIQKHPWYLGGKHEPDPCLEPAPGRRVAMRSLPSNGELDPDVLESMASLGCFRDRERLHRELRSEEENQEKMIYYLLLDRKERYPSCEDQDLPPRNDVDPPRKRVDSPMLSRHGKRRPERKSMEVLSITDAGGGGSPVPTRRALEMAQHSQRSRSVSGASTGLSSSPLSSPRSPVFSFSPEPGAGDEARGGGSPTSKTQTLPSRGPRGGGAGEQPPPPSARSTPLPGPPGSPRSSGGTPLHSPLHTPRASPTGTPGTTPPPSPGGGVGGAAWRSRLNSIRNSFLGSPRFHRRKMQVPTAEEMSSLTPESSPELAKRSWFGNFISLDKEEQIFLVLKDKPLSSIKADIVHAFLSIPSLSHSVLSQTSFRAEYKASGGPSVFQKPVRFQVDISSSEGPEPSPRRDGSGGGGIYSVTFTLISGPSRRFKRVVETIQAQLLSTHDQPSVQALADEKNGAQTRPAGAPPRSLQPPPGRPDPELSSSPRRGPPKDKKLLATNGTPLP
Protocol: as §1

T5 sequence (P06493 whole entry): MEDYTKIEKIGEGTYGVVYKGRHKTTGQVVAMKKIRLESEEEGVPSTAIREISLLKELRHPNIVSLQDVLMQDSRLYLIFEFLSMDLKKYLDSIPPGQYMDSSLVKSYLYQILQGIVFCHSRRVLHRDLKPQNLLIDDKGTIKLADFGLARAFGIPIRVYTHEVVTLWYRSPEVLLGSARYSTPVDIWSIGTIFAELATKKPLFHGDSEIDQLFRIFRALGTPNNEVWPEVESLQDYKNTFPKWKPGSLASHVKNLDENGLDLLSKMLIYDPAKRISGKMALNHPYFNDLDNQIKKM
T5 sequence (P14635 whole entry partner): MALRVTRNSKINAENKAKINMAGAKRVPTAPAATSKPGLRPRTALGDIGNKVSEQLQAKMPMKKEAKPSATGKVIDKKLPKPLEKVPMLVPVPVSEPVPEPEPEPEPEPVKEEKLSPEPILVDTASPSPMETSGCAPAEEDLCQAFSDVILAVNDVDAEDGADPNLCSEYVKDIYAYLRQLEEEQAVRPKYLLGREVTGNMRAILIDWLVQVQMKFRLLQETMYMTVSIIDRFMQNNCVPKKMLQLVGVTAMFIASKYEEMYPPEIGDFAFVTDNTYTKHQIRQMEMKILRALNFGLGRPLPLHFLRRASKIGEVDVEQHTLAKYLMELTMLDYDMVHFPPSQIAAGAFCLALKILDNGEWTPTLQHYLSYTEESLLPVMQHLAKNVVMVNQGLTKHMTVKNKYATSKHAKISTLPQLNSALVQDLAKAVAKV
T4 sequence (Q9Y4K4 whole entry): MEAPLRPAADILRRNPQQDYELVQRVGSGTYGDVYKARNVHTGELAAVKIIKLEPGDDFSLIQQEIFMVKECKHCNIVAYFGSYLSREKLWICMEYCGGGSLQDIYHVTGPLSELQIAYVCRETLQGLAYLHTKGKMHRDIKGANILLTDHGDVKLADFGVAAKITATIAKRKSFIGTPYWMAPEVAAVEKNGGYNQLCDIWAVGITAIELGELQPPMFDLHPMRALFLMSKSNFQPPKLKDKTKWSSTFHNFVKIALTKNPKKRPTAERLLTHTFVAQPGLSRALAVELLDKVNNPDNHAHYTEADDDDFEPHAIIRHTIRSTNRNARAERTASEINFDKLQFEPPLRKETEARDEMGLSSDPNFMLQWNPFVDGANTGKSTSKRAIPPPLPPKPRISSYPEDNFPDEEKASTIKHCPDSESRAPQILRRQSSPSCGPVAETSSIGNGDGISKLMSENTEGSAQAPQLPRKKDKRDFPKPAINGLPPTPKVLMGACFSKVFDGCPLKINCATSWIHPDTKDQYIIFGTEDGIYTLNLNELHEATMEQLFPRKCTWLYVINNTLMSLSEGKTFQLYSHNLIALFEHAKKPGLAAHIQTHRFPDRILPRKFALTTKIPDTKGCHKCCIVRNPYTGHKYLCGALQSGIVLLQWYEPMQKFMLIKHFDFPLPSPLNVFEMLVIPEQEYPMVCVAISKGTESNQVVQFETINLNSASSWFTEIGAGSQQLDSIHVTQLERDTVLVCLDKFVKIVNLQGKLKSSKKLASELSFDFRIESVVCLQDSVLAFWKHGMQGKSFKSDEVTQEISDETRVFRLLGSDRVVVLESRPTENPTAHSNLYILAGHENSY
T7 sequence (Q9P1W9 whole entry): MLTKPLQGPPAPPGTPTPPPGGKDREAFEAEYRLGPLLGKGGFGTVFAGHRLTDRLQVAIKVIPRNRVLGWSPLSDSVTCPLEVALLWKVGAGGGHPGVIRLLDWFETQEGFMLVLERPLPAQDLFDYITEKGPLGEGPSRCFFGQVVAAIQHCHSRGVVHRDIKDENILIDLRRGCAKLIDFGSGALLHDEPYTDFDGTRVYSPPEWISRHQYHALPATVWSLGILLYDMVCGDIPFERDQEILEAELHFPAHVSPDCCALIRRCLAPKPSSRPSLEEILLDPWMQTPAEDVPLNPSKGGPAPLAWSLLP
T3 sequence (Q13882 whole entry): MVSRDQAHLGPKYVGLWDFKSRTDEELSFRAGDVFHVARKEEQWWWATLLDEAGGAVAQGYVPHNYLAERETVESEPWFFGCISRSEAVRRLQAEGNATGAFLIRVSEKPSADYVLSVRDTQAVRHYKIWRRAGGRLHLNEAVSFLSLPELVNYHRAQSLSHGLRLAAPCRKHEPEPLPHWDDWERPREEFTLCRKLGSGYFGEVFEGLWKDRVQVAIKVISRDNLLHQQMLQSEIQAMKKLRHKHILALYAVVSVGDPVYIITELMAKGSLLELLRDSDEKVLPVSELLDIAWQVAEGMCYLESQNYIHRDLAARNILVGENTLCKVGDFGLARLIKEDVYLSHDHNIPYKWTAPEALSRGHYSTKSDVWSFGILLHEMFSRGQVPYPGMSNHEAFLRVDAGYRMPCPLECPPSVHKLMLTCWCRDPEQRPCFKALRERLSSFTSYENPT
T2 sequence (O60674 whole entry): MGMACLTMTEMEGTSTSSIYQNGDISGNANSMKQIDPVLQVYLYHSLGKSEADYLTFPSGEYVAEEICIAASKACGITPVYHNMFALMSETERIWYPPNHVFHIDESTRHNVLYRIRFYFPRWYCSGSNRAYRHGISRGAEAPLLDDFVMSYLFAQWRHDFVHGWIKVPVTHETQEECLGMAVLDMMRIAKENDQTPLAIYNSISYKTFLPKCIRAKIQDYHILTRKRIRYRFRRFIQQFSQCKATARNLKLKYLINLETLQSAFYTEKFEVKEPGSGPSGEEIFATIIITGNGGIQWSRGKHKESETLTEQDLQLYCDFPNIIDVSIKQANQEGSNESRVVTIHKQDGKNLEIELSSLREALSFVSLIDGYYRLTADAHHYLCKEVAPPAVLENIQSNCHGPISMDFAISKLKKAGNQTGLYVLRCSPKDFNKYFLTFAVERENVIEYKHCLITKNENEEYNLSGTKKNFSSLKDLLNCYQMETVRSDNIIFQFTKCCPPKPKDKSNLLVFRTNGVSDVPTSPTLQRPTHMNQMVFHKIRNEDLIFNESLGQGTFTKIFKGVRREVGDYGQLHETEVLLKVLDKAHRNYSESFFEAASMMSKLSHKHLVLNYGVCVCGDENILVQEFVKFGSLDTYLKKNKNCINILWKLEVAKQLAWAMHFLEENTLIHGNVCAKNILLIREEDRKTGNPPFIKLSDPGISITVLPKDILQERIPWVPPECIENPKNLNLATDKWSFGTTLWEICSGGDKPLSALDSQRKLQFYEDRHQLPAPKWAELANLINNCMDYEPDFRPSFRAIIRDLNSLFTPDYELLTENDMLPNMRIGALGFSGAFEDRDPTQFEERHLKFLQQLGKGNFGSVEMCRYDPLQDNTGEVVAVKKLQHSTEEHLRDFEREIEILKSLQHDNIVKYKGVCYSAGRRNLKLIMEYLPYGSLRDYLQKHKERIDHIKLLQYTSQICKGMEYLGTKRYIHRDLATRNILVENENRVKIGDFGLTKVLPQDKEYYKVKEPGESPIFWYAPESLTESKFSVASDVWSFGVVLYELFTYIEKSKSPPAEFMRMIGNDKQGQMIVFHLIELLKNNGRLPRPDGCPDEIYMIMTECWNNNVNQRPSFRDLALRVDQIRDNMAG

Compound	residual kinase activity (MKK6 SDTD; 0.3 µM)	residual kinase activity (JAK2; 0.3 µM)	residual kinase activity (BRK; 0.3 µM)	residual kinase activity (MAP4K5; 0.3 µM)	residual kinase activity (CDK1/CycB1; 0.3 µM)	residual kinase activity (PKCζ; 0.3 µM)	residual kinase activity (PIM2; 0.3 µM)	residual kinase activity (BRSK1; 0.3 µM)	further results
COc1ccnc2[nH]cc(-c3cc(N)nc(N)c3)c12 [meriolin 16]	87 % of control	80 % of control	85 % of control	52 % of control	5 % of control	78 % of control	83 % of control	97 % of control	residual kinase activity (MKK6 SDTD; 0.03 µM): 77 % of control; residual kinase activity (JAK2; 0.03 µM): 102 % of control; residual kinase activity (BRK; 0.03 µM): 91 % of control; residual kinase activity (MAP4K5; 0.03 µM): 87 % of control; residual kinase activity (CDK1/CycB1; 0.03 µM): 29 % of control; residual kinase activity (PKCζ; 0.03 µM): 97 % of control; residual kinase activity (PIM2; 0.03 µM): 115 % of control; residual kinase activity (BRSK1; 0.03 µM): 91 % of control
c1ccc(CNc2cc(-c3c[nH]c4ncccc34)ccn2)cc1 [meriolin 36]	63 % of control	40 % of control	66 % of control	3 % of control	4 % of control	85 % of control	119 % of control	89 % of control	residual kinase activity (MKK6 SDTD; 3 µM): 30 % of control; residual kinase activity (JAK2; 3 µM): 8 % of control; residual kinase activity (BRK; 3 µM): 18 % of control; residual kinase activity (MAP4K5; 3 µM): 0 % of control; residual kinase activity (CDK1/CycB1; 3 µM): 1 % of control; residual kinase activity (PKCζ; 3 µM): 29 % of control; residual kinase activity (PIM2; 3 µM): 90 % of control; residual kinase activity (BRSK1; 3 µM): 73 % of control
